In PubChem BioAssay (NCI):
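Following 48 hours of exposure in 96-well plates, responses at five concentrations were used to interpolate endpoints linearly. Here, GI50 denotes the concentration required for 50% inhibition of growth. TGI: concentration producing complete growth inhibition.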 Where a SMILES comes first, the peptide text is derived from it. Bridges are numbered along the chain shown (N, C = ends). Roman numbers before positions name the chains, in order. [ ]: non-standard residue; d: D form. The star is where a group is joined. Heptadecanoyl = CCCCCCCCCCCCCCCCC(=O)*; Phg = N[CH](C(=O)O)c1ccccc1

Columns and labels:
Assay in all cases: DTP human tumour cell line panel, 48 h
HCC-2998 colon = tested on: HCC-2998 colon
EKVX NSCLC = tested on: EKVX NSCLC
UACC-62 melanoma = tested on: UACC-62 melanoma
MALME-3M melanoma = tested on: MALME-3M melanoma
NCI-H23 lung = tested on: NCI-H23 lung
CAKI-1 renal = tested on: CAKI-1 renal
A549 NSCLC = tested on: A549 NSCLC
SF-295 CNS = tested on: SF-295 CNS
OVCAR-4 ovarian = tested on: OVCAR-4 ovarian
HOP-62 NSCLC = tested on: HOP-62 NSCLC

| SMILES | TGI (HCC-2998 colon) [µM] | TGI (EKVX NSCLC) [µM] | TGI (UACC-62 melanoma) [µM] | TGI (MALME-3M melanoma) [µM] | TGI (NCI-H23 lung) [µM] | TGI (CAKI-1 renal) [µM] | TGI (A549 NSCLC) [µM] | TGI (SF-295 CNS) [µM] | TGI (OVCAR-4 ovarian) [µM] | TGI (HOP-62 NSCLC) [µM] | GI50 (HCC-2998 colon) [µM] | GI50 (EKVX NSCLC) [µM] | GI50 (NCI-H23 lung) [µM] | GI50 (CAKI-1 renal) [µM] | GI50 (A549 NSCLC) [µM] | GI50 (SF-295 CNS) [µM] | GI50 (OVCAR-4 ovarian) [µM] | GI50 (HOP-62 NSCLC) [µM] | GI50 (UACC-62 melanoma) [µM] | GI50 (MALME-3M melanoma) [µM] |
| --- | --- | --- | --- | --- | --- | --- | --- | --- | --- | --- | --- | --- | --- | --- | --- | --- | --- | --- | --- | --- |
| C/C(=C\c1ccc2c(c1)OCO2)[N+](=O)[O-] | 7.34 | 16.4 | 4.83 | 5.68 | 7.54 | 4.41 | > 100 | 6.27 | 14 | > 100 | – | – | – | – | – | – | – | – | – | – |
| C(=N/Nc1ccccn1)/c1cccnc1 | > 100 | > 100 | > 100 | > 100 | > 100 | > 100 | > 100 | > 100 | > 100 | > 100 | – | – | – | – | – | – | – | – | – | – |
| CCCCCCCCCCCCCCCCC(=O)N1CCCC1C(=O)NCC(=O)NC(C(=O)N1CCCC1C(=O)NC(CO)C(=O)NC(Cc1ccc(O)cc1)C(=O)NC(CCCCNC(=O)C1CCCN1C(=O)C(CCCCN)NC(=O)C(CCCCN)NC(=O)C(CCCCN)NC(=O)C(CCCNC(=N)N)NC(=O)C(CCCCN)NC(=O)C(N)C(C)C)C(=O)NC(CC(C)C)C(=O)NC(CCCNC(=N)N)C(=O)N1CCCC1C(=O)NCC(N)=O)c1ccccc1 (centres undefined) (I: Heptadecanoyl-PG[Phg]PSYKLRPG-NH2 / II: H-VKRKKKP; amide I:7-II:C; configuration not given here) | 29.9 | 84.4 | – | – | > 100 | 47.7 | 53.3 | 80.1 | > 100 | > 100 | 4.36 | 27.7 | 31.5 | 22.9 | 23.9 | 25 | 46.9 | 32.3 | – | – |
| CN(C)C(=S)SCc1ccccc1 | – | > 100 | > 100 | > 100 | > 100 | > 100 | > 100 | > 100 | – | > 100 | – | – | – | – | – | – | – | – | – | – |
| CCOC(=O)c1cc(Cl)ccc1OC(N)=O | > 100 | > 100 | > 100 | – | > 100 | > 100 | > 100 | > 100 | > 100 | > 100 | – | – | – | – | – | – | – | – | – | – |
| N#CC(C#N)=Cc1ccc(-c2ccc(-c3nc4ccccc4s3)cc2)s1 | 65.8 | > 100 | 30.7 | 54.5 | 52.9 | 47.4 | > 100 | 59.1 | > 100 | 34.2 | 27.9 | 29.6 | 18.1 | 20.9 | 13.8 | 22.6 | 51.9 | 13 | 15.1 | 16.6 |
| Nc1nc(Cl)nc2c1ncn2C1CCC(CO)O1 (centres undefined) | – | – | > 100 | > 100 | > 100 | > 100 | – | > 100 | > 100 | > 100 | – | – | – | – | – | – | – | – | – | – |
| Cc1cccc(C(O)c2ccccn2)c1O (centres undefined) | > 100 | > 100 | > 100 | > 100 | > 100 | > 100 | > 100 | > 100 | – | > 100 | – | – | – | – | – | – | – | – | – | – |
